Experimental data as given in PubChem BioAssay (NCI).
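96-well plates; 48 h exposure; 5 concentrations. Endpoints by linear interpolation between flanking doses. Not reached: highest tested concentration assigned. TGI: total growth inhibition.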

Assays:
Experiment in all cases: DTP human tumour cell line panel, 48 h
CAKI-1 renal = test system: CAKI-1 renal
HL-60(TB) leukemia = test system: HL-60(TB) leukemia
K-562 leukemia = test system: K-562 leukemia
LOX IMVI melanoma = test system: LOX IMVI melanoma
MCF7 breast = test system: MCF7 breast
MDA-MB-231 breast = test system: MDA-MB-231 breast
NCI-H23 lung = test system: NCI-H23 lung
SK-MEL-2 melanoma = test system: SK-MEL-2 melanoma
SR leukemia = test system: SR leukemia
U251 CNS = test system: U251 CNS

Compound | TGI (CAKI-1 renal) | TGI (HL-60(TB) leukemia) | TGI (K-562 leukemia) | TGI (LOX IMVI melanoma) | TGI (MCF7 breast) | TGI (MDA-MB-231 breast) | TGI (NCI-H23 lung) | TGI (SK-MEL-2 melanoma) | TGI (SR leukemia) | TGI (U251 CNS)
CC1(C)C(CBr)=[N+]([O-])C(C)(C)N1O | 5.87 µM | > 6.81 µM | > 8.04 µM | > 10 µM | > 10 µM | > 10 µM | > 10 µM | > 10 µM | > 10 µM | > 10 µM
CCOC(=O)c1ccc(Nc2nc3ccccc3n3cccc23)cc1 | > 100 µM | 0.0169 µM | > 100 µM | > 100 µM | > 100 µM | > 100 µM | > 100 µM | > 100 µM | > 100 µM | 98 µM
O=C1/C(=C/c2ccc([N+](=O)[O-])cc2)CCCc2ccccc21 | > 100 µM | > 100 µM | > 100 µM | > 100 µM | > 100 µM | > 100 µM | > 100 µM | > 100 µM | > 100 µM | > 100 µM
CC(=O)OC(OC(C)=O)c1c2ccccc2cc2ccccc12 | > 100 µM | > 100 µM | 27.8 µM | 59.9 µM | 40.7 µM | 40.1 µM | > 100 µM |  | 56.3 µM | > 100 µM
Nc1ccc2nc3n(c2c1)C(c1c(F)cccc1F)SC3 (stereo not drawn) | > 100 µM | > 100 µM | > 100 µM | > 100 µM | > 100 µM | > 100 µM | > 100 µM | > 100 µM | > 100 µM | > 100 µM
CCOP(=O)(OCC)/C(=C\n1ccc(=O)[nH]c1=S)C(=O)OC | > 100 µM | > 100 µM | > 100 µM | > 100 µM | > 100 µM | > 100 µM | > 100 µM | > 100 µM | > 100 µM | > 100 µM
CCOC(=O)C(=CNc1ccc(S(N)(=O)=O)cc1)C(=O)OCC | > 100 µM | > 100 µM | > 100 µM | > 100 µM | > 100 µM | > 100 µM | > 100 µM | > 100 µM | > 100 µM | > 100 µM
COc1c(O)cc2c(c1O)C(=O)C(Cc1ccc(O)cc1)CO2 (stereo not drawn) | > 100 µM | > 100 µM | > 100 µM | > 100 µM | > 100 µM | > 100 µM | > 100 µM | > 100 µM | > 100 µM | > 100 µM
CCCCC1Nc2ccccc2-c2ccnc(Cl)c21 (stereo not drawn) | 20.2 µM | 51.8 µM | 62.8 µM | 34.7 µM | > 100 µM | 43.8 µM | 31.4 µM | 35.8 µM | 51 µM | 50.1 µM
CC(C)CC(C#CCCOC(=O)c1ccccc1)OC(=O)c1ccccc1 (stereo not drawn) |  | > 10 µM | > 10 µM | > 10 µM | > 10 µM | > 10 µM | > 10 µM | > 10 µM | > 10 µM | > 10 µM
